This is an account of results in patent US10161932B2, “Azetidine-substituted fluorescent compounds” (HOWARD HUGHES MEDICAL INSTITUTE, priority 2014, dated 2018).

Data set [1] is described as follows: Absorption and fluorescence spectroscopy of dyes. The class given is physicochemical. Here is the method:
Phosphate buffered saline (PBS) was at pH 7.4 unless otherwise noted.
Spectroscopy was performed using 1-cm path length, 3.5-mL quartz cuvettes from Starna Cells or 1-cm path length, 1.0-mL quartz microcuvettes from Hellma. All measurements were taken at ambient temperature (22±2° C.) in 10 mM HEPES, pH 7.3 buffer unless otherwise noted. Absorption spectra were recorded on a Cary Model 100 spectrometer (Varian); reported values for extinction coefficients (ε) are averages (n=3). Fluorescence spectra were recorded on a Cary Eclipse fluorometer (Varian). Normalized spectra are shown for clarity.

The nature of data set [2]: Quantum yield measurement (Quantaurus-QY spectrometer). The data set is classed as physicochemical. The note with it: for increase in quantum yield / brightness relative to parent N,N-dialkyl dye: azetidine-substituted vs parent fluorophore.
Procedure: All reported quantum yield values were measured in under identical conditions using a Quantaurus-QY spectrometer (C11374, Hamamatsu). Measurements were carried out using dilute samples (A<0.1) and self-absorption corrections were performed using the instrument software. Reported values are averages (n=3).
Where [3] appears, read: Table 1, trifluoroethanol containing 0.1% (v/v) trifluoroacetic acid.

Read-outs that look alike come from different tables or passages of the source.

For the molecule `CN(C)c1ccc2cc3ccc(N(C)C)cc3nc2c1` [Acridine Orange, reference compound], in data set [1] (Table 3, 10 mM HEPES pH 7.3), the ε is 50,000 M^−1 cm^−1, the λem is given as 528 nm and the λmax came out at 493 nm. Further, the ϕ in data set [2] (Table 3, 10 mM HEPES pH 7.3) was 0.21. Moreover, the “ϕ (quantum yield)” value in data set [2] (aqueous buffer) came out at 0.21.

For `Cc1cc(=O)oc2cc(N(C)C)ccc12` [Coumarin 461, reference compound], in data set [1] (Table 3, 10 mM HEPES pH 7.3), the ε was 18,000 M^−1 cm^−1, the λem is 470 nm and the λmax is reported as 372 nm. For the same molecule, in data set [1] (aqueous buffer), the “ε (extinction coefficient)” value came out at 18000 M⁻¹ cm⁻¹. Besides, in data set [2], the “ϕ (quantum yield)” value is on record as 0.19. For the same molecule, in data set [2] (pH 7.3), the ϕ was found to be 0.19.

For the molecule `CC1(C)CN(c2ccc3c(-c4ccccc4C(=O)[O-])c4ccc(=[N+]5CC(C)(C)C5)cc-4oc3c2)C1` [Example 8, 2-(3,6-Bis(3,3-dimethylazetidin-1-yl)xanthylium-9-yl)benzoate], in data set [1] (Table 1, 10 mM HEPES pH 7.3), the ε is 110,000 M^−1 cm^−1, the λem is given as 572 nm and the λmax was 550 nm. Further, the ϕ in data set [2] (Table 1, 10 mM HEPES pH 7.3) worked out at 0.83.

Turning to `O=C([O-])c1ccccc1-c1c2ccc(=[N+]3CC(F)(F)C3)cc-2oc2cc(N3CC(F)(F)C3)ccc12` [Example 9, 2-(3,6-Bis(3,3-difluoroazetidin-1-yl)xanthylium-9-yl)benzoate], in data set [1] (Table 1, 10 mM HEPES pH 7.3), the ε is given as 94,000 M^−1 cm^−1, the λem came out at 549 nm and the λmax turned out to be 525 nm. Besides, in data set [2] (Table 1, 10 mM HEPES pH 7.3), the ϕ is reported as 0.91.

For `O=C([O-])c1ccccc1-c1c2ccc(=[N+]3CC(F)C3)cc-2oc2cc(N3CC(F)C3)ccc12` (centres unmarked) [Example 10, 2-(3,6-Bis(3-fluoroazetidin-1-yl)xanthylium-9-yl)benzoate], in data set [1] (Table 1, 10 mM HEPES pH 7.3), the ε is on record as 113,000 M^−1 cm^−1, the λem amounted to 560 nm and the λmax worked out at 536 nm. The molecule also came in with a ϕ in data set [2] (Table 1, 10 mM HEPES pH 7.3) of 0.87.

For `COC1CN(c2ccc3c(-c4ccccc4C(=O)[O-])c4ccc(=[N+]5CC(OC)C5)cc-4oc3c2)C1` (centres unmarked) [Example 11, 2-(3,6-Bis(3-methoxyazetidin-1-yl)xanthylium-9-yl)benzoate], in data set [1] (Table 1, 10 mM HEPES pH 7.3), the ε is reported as 109,000 M^−1 cm^−1, the λem came to 564 nm and the λmax is recorded as 541 nm. Also, the ϕ in data set [2] (Table 1, 10 mM HEPES pH 7.3) came out at 0.88.

Regarding `N#CC1CN(c2ccc3c(-c4ccccc4C(=O)[O-])c4ccc(=[N+]5CC(C#N)C5)cc-4oc3c2)C1` (centres unmarked) [Example 12, 2-(3,6-Bis(3-cyanoazetidin-1-yl)xanthylium-9-yl)benzoate], in data set [1] (Table 1, 10 mM HEPES pH 7.3), the ε is reported as 108,000 M^−1 cm^−1, the λem came to 557 nm and the λmax was found to be 533 nm. This molecule also returned a ϕ in data set [2] (Table 1, 10 mM HEPES pH 7.3) of 0.89.

As for `CN(C)C1CN(c2ccc3c(-c4ccccc4C(=O)[O-])c4ccc(N5CC(N(C)C)C5)cc4[o+]c3c2)C1` [Example 13, 2-(3,6-Bis(3-(dimethylamino)azetidin-1-yl)xanthylium-9-yl)benzoate], in data set [1] (Table 1, 10 mM HEPES pH 7.3), the ε is reported as 111,000 M^−1 cm^−1, the λem worked out at 565 nm and the λmax is given as 542 nm. In data set [2] (Table 1, 10 mM HEPES pH 7.3), this molecule returned a ϕ of 0.57.

Take `O=C([O-])c1ccccc1-c1c2ccc(=[N+]3CC(C(=O)O)C3)cc-2oc2cc(N3CC(C(=O)O)C3)ccc12` (centres unmarked) [Example 16, 2-(3,6-Bis(3-carboxyazetidin-1-yl)xanthylium-9-yl)benzoate]: in data set [1] (Table 1, 10 mM HEPES pH 7.3), the ε was 108,000 M^−1 cm^−1, the λem is 568 nm and the λmax stood at 545 nm. In data set [2] (Table 1, 10 mM HEPES pH 7.3), this molecule yielded a ϕ of 0.87.

Turning to `O=C(O)CC1CN(c2ccc3c(-c4ccccc4C(=O)[O-])c4ccc(=[N+]5CC(CC(=O)O)C5)cc-4oc3c2)C1` (centres unmarked) [Example 17, 2-(3,6-Bis(3-(carboxymethyl)azetidin-1-yl)xanthylium-9-yl)benzoate], in data set [1] (Table 1, 10 mM HEPES pH 7.3), the ε is on record as 111,000 M^−1 cm^−1, the λem is 572 nm and the λmax is 549 nm. In data set [2] (Table 1, 10 mM HEPES pH 7.3), this molecule displayed a ϕ of 0.87.

For the molecule `C[Si]1(C)C2=CC(=[N+]3CCC3)C=CC2=C(c2ccccc2C(=O)[O-])c2ccc(N3CCC3)cc21` [Example 30, 2-(3,7-Di(azetidin-1-yl)-5,5-dimethyldibenzo[b,e]silin-10-ylium-10(5H)-yl)benzoate], the λem in data set [1] (Table 1, 10 mM HEPES pH 7.3) is listed as 664 nm; in data set [1] (Table 3, 10 mM HEPES pH 7.3) it was 664 nm. The λmax in data set [1] (Table 1, 10 mM HEPES pH 7.3) amounted to 646 nm; in data set [1] (Table 3, 10 mM HEPES pH 7.3), 646 nm; in data set [1] (text b257, unit not given) it was 646. For the same molecule, the ε in data set [1] (Table 1, ethanol containing 0.1% (v/v) trifluoroacetic acid) is on record as 152,000^b M^−1 cm^−1; in data set [1] (Table 3, ethanol containing 0.1% v/v trifluoroacetic acid), 152,000^a M^−1 cm^−1. Also, the “ε (extinction coefficient)” value in data set [1] (acidic ethanol) amounted to 152000 M⁻¹ cm⁻¹. Further, the ϕ in data set [2] (Table 1, 10 mM HEPES pH 7.3) is listed as 0.54; in data set [2] (Table 3, 10 mM HEPES pH 7.3), 0.54. The “ϕ (quantum yield)” value in data set [2] (aqueous buffer) was determined as 0.54.

In data set [1] (Table 1, 10 mM HEPES pH 7.3), `C[Si]1(C)C2=CC(=[N+]3CC(F)C3)C=CC2=C(c2ccccc2C(=O)[O-])c2ccc(N3CC(F)C3)cc21` (centres unmarked) [Example 31, 2-(3,7-Bis(3-fluoroazetidin-1-yl)-5,5-dimethyldibenzo[b,e]silin-10-ylium-10(5H)-yl)benzoate] returned a λem of 652 nm and a λmax of 635 nm. Besides, the ε in data set [1] (setting [3]) is listed as 167,000^a M^−1 cm^−1. In data set [2] (Table 1, 10 mM HEPES pH 7.3), the ϕ is reported as 0.56.

For `CC1(C)C2=CC(=[N+]3CCC3)C=CC2=C(c2ccccc2C(=O)[O-])c2ccc(N3CCC3)cc21` [Example 40, 2-(3,6-Di(azetidin-1-yl)-10,10-dimethylanthracen-9-ylium-9(10H)-yl)benzoate], in data set [1] (Table 1, 10 mM HEPES pH 7.3), the ε is listed as 99,000 M^−1 cm^−1, the λem is on record as 631 nm and the λmax is 608 nm. For the same molecule, in data set [1] (Table 3, 10 mM HEPES pH 7.3), the ε is on record as 99,000 M^−1 cm^−1, the λem is listed as 631 nm and the λmax worked out at 608 nm. The “ε (extinction coefficient)” value in data set [1] (aqueous buffer) turned out to be 99000 M⁻¹ cm⁻¹. Further, the ϕ in data set [2] (Table 1, 10 mM HEPES pH 7.3) is recorded as 0.67. The molecule further registered a ϕ in data set [2] (Table 3, 10 mM HEPES pH 7.3) of 0.67. Moreover, the “ϕ (quantum yield)” value in data set [2] (aqueous buffer) was 0.67.

With `CC1(C)C2=CC(=[N+]3CC(F)(F)C3)C=CC2=C(c2ccccc2C(=O)[O-])c2ccc(N3CC(F)(F)C3)cc21` [Example 41, 2-(3,6-Bis(3,3-difluoroazetidin-1-yl)-10,10-dimethylanthracen-9-ylium-9(10H)-yl)benzoate], in data set [1] (Table 1, 10 mM HEPES pH 7.3), the λem was 609 nm and the λmax is recorded as 585 nm. For the same molecule, the ε in data set [1] (setting [3]) was 156,000^a M^−1 cm^−1. Also, the ϕ in data set [2] (Table 1, 10 mM HEPES pH 7.3) was determined as 0.78.

As to `Cc1cc(=O)oc2cc(N3CCC3)ccc12` [Example 49, 7-(Azetidin-1-yl)-4-methyl-2H-chromen-2-one], in data set [1] (Table 3, 10 mM HEPES pH 7.3), the ε is 15,000 M^−1 cm^−1, the λem turned out to be 467 nm and the λmax was 354 nm. In addition, the “ε (extinction coefficient)” value in data set [1] (aqueous buffer) is 15000 M⁻¹ cm⁻¹. The ϕ in data set [2] (Table 3, 10 mM HEPES pH 7.3) is recorded as 0.96. Also, the “ϕ (quantum yield)” value in data set [2] (aqueous buffer) is reported as 0.96. In addition, in data set [2], the “increase in quantum yield / brightness relative to parent N,N-dialkyl dye” value is given as “five-fold”.

As for `O=C(O)c1cc2ccc(N3CCC3)cc2oc1=O` [Example 51, 7-(Azetidin-1-yl)-2-oxo-2H-chromene-3-carboxylic acid], in data set [1] (Table 3, 10 mM HEPES pH 7.3), the ε is on record as 24,000 M^−1 cm^−1, the λem came out at 470 nm and the λmax is given as 387 nm. The “ε (extinction coefficient)” value in data set [1] (aqueous buffer) was determined as 24000 M⁻¹ cm⁻¹. The ϕ in data set [2] (Table 3, 10 mM HEPES pH 7.3) turned out to be 0.84. For the same molecule, the “ϕ (quantum yield)” value in data set [2] (aqueous buffer) is 0.84. For the same molecule, the “increase in quantum yield / brightness relative to parent N,N-dialkyl dye” value in data set [2] is ~30 fold.
